US6034086A, “Trifluoromethylquinolinecarboxylic acid derivative” (priority 1994, dated 2000)
≈ marks a conversion by molar mass, not a printed value. Like-named read-outs stand apart in the source and are kept apart here.

Assays:
[1] = test system: HIV; assay: cellular disorder-suppressing activity (anti-HIV activity) in HIV-infected MT-4 cells, MTT, method of R. Pauwel et al.; format: cell-based; conditions: for EC50: Human immunodeficiency virus 1, MT4, 120 h, HIV-infected MT-4 cells, 37° C., 5 days, 5% carbon dioxide, MTT, read-out: EC50 (50% cellular disorder-suppressing activity against the HIV-infected cells)
Experimental: That is, MT-4 cells were centrifuged (1000×g, 5 minutes), and a cell-floating solution in which the resulting cellular sediments were suspended in a RPMI-1640 medium containing no serum was inoculated with HIV. The mixture was cultured at 37° C. for 1 hour and then added to a RPMI-1640 medium to which 10% bovine fetal serum was added (hereinafter referred to as the serum medium), and the mixture was washed and centrifuged (1000×g, 5 minutes). The HIV-infected cells thus obtained and HIV-non-infected cells were suspended in the serum media in an amount of 4×10^5 /ml, respectively, and each 100 μl of the suspensions were apportioned to the respective wells of a multiwell with 96 wells for tissue culture. Each 100 μl of the compounds which had been previously diluted with the serum medium stepwisely were apportioned to these respective wells, and then the mixtures were left to stand and cultured at 37° C. for 5 days in the presence of 5% carbon dioxide. In the same manner, the HIV-infected cells and the HIV-non-infected cells to which the compound was not added were cultured. […] It was confirmed that no mycoplasma was contained in the cell solution and the virus-inoculated solution.
The cellular disorder-suppressing activity against the HIV-non-infected cells to which the compound was not added was defined as 100%, and the cellular disorder-suppressing activity against the HIV-infected cells to which the compound was not added was defined as 0%.

[2] = test system: HIV; conditions: AIDS 4, 1283 (1990) for DR-3355; WO 90/13542 for the others; cited from earlier work
[3] = method of R. Pauwel et al., statement in background section

Compound	EC50 [1]	cellular disorder-suppressing activity to HIV-infected cells (anti-HIV activity), in words [1, 3]	anti-HIV activity reported in literature, in words [2]	cellular disorder-suppressing activity to HIV-infected cells (anti-HIV activity), in words [1]
Cn1cc(C(=O)O)c(=O)c2cc(F)c(N3CCN(c4ncccn4)CC3)c(C(F)(F)F)c21 [Example 8, 6-fluoro-8-trifluoromethyl-1,4-dihydro-4-oxo-1-methyl-7-[4-(2-pyrimidinyl)piperazin-1-yl]quinoline-3-carboxylic acid]	0.02 µg/mL (≈ 0.0443 µM)	–	–	–
C[C@H]1COc2c(N3CCN(C)CC3)c(F)cc3c(=O)c(C(=O)O)cn1c23 [DR-3355]	–	no anti-HIV activity was recognized	anti-HIV activity	–
CCn1cc(C(=O)O)c(=O)c2cc(F)c(N3CCN(c4ccccn4)CC3)c(C(F)(F)F)c21 [Example 11, 1-ethyl-6-fluoro-8-trifluoromethyl-1,4-dihydro-4-oxo-7-[4-(2-pyridyl)piperazin-1-yl]quinoline-3-carboxylic acid]	0.01 µg/mL (≈ 0.0215 µM)	–	–	–
Cn1cc(C(=O)O)c(=O)c2cc(F)c(N3CCN(c4nccs4)CC3)c(C(F)(F)F)c21 [Example 23, 6-fluoro-8-trifluoromethyl-1,4-dihydro-4-oxo-1-methyl-7-[4-(2-thiazolyl)piperazin-1-yl]quinoline-3-carboxylic acid]	0.011 µg/mL (≈ 0.0241 µM)	–	–	–
CN1CCN(c2cc3c(cc2F)c(=O)c(C(=O)O)cn3-c2ccc(F)cc2)CC1 [Difloxacin]	–	no anti-HIV activity was also recognized	anti-HIV activities	–
NC1CCN(c2nc3c(cc2F)c(=O)c(C(=O)O)cn3-c2ccc(F)cc2F)C1 (centres unmarked) [Tosufloxacin]	–	no anti-HIV activity was also recognized	anti-HIV activities	–
O=C(O)c1cn(C2CC2)c2cc(N3CCNCC3)c(F)cc2c1=O [Ciprofloxacin]	–	–	anti-HIV activities	no anti-HIV activity was also recognized
CCn1cc(C(=O)O)c(=O)c2cc(F)c(N3CCNCC3)cc21 [Norfloxacin]	–	no anti-HIV activity was also recognized	anti-HIV activities	–
Cn1cc(C(=O)O)c(=O)c2cc(F)c(N3CCN(c4ccc(F)cc4)CC3)c(C(F)(F)F)c21 [Example 22, 6-fluoro-8-trifluoromethyl-1,4-dihydro-4-oxo-1-methyl-7-[4-(4-fluorophenyl)piperazin-1-yl]quinoline-3-carboxylic acid]	0.0096 µg/mL (≈ 0.0205 µM)	–	–	–
CCn1cc(C(=O)O)c(=O)c2cc(F)c(N3CCNC(C)C3)c(F)c21 (centres unmarked) [Lomefloxacin]	–	no anti-HIV activity was also recognized	anti-HIV activities	–
O=C(O)c1cn(C2CC2)c2c(C(F)(F)F)c(N3CCN(c4ccccn4)CC3)c(F)cc2c1=O [Example 2, 1-cyclopropyl-6-fluoro-8-trifluoromethyl-1,4-dihydro-4-oxo-7-[4-(2-pyridyl)piperazin-1-yl]quinoline-3-carboxylic acid]	0.02 µg/mL (≈ 0.042 µM)	–	–	–
CCn1cc(C(=O)O)c(=O)c2cc(F)c(N3CCNCC3)nc21 [Enoxacin]	–	no anti-HIV activity was also recognized	anti-HIV activities	–
Cn1cc(C(=O)O)c(=O)c2cc(F)c(N3CCN(c4ccccn4)CC3)c(C(F)(F)F)c21 [Example 9, 6-fluoro-8-trifluoromethyl-1,4-dihydro-4-oxo-1-methyl-7-[4-(2-pyridyl)piperazin-1-yl]quinoline-3-carboxylic acid]	0.005 µg/mL (≈ 0.0111 µM)	–	–	–
